21 compounds from US20220289753A1, “SHP2 INHIBITORS” (IRBM S.P.A., priority 2019, published 2022) can be followed below.

Where two headings read alike, the source gives them in different places.

The target in experiment [1] is T1, SHP-2 enzyme (Met1-Leu525) (Homo sapiens, UniProt Q06124).
T1 construct: synthetized by Origene, Met1-Leu525, cat #TP750155; purchased Origene TP750155
T1 sequence (Q06124 1-525): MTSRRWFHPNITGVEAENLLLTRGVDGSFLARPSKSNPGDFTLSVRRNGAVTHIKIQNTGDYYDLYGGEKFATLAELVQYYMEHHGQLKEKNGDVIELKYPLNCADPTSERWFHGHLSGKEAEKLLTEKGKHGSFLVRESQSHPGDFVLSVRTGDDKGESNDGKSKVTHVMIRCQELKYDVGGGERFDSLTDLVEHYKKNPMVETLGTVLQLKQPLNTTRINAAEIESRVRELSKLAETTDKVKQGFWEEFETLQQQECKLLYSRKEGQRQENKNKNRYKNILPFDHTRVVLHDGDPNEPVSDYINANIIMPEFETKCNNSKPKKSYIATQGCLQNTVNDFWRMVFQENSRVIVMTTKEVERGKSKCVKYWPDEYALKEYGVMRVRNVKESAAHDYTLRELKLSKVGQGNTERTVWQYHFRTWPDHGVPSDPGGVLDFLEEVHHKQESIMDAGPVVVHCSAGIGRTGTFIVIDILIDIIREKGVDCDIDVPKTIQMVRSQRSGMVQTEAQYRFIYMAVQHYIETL
In words: SHP2 inhibition enzymatic assay (DiFMUP substrate, IRS1 peptide activation). It counts as biochemical. Particulars: SHP2 wt; activated by 500 nM IRS1 peptide; 75 μM DiFMUP substrate. An outline of the steps:
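SHP-2 (Met1-Leu525, 0.5 nM final) preincubated 30 min with compounds and IRS1 activating peptide in HEPES pH 7.2 buffer with NaCl, KCl, EDTA, tween-20, 5 mM DTT. DiFMUP then added for 30 min at room temperature and fluorescence read. IC50 from four-parameter logistic fit of % inhibition.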

In experiment [2] the test system is ERK phosphorylation in KYSE-520 cells. In words: Phospho-ERK cellular assay (Advanced phospho-ERK1/2 (Thr202/Tyr204) TR-FRET kit). It counts as cell-based. Particulars: Homo sapiens, KYSE-520, 2 h, read-out: pERK IC50. On the procedure:
Phospho-ERK Cellular Assay
ERK phosphorylation was detected using the “Advanced phospho-ERK1/2 (Thr202/Tyr204)” TR-FRET kit (Cisbio, Cat #64AERPEG/H), following the manufacturer reagents and instructions. […] After an overnight incubation, cells were treated with DMSO serial diluted compounds and incubated for 2 h at 37° C. After incubation, 2 μL/well of 4× Lysis Buffer (Cisbio 64KL1FDF), were added and incubated with cells for 30 min on gentle shaking. Finally, lysates were added with 2 μL/well of Eu cryptate (donor) and D2 (acceptor) conjugated antibodies (as provided by the Cisbio kit #64AERPEG/H) diluted 1:100 in Detection Buffer (as provided by the Cisbio kit #64AERPEG/H). Plates were then sealed and incubated at room temperature in the dark. After an overnight incubation, the TR-FRET signal was detected on a suitable reader (Envision, PerkinElmer). The lower the TR-FRET signal the higher the higher the SHP2 inhibition in cells. […] The percentage activity is fitted against the compound dilutions with a four-parameter logistic regression. The inflection point (i.e. the concentration at which half-maximal inhibition is achieved) is the IC50.

[3] abbreviates: KYSE-520 cells, 2 h at 37° C., TR-FRET.

In general, IC50 refers to the point on the concentration scale where inhibition reaches its midpoint. For `N[C@@H]1c2ccccc2CC12CCN(c1nc3ncc(Sc4cccc5[nH]ccc45)nc3[nH]1)CC2` [Example 198, (S)-1′-(6-((1H-indol-4-yl)thio)-1H-imidazo[4,5-b]pyrazin-2-yl)-1,3-dihydrospiro[indene-2,4′-piperidin]-1-amine], the IC50 in experiment [1] is under 500 nM; in experiment [2] (setting [3]), under 1000 nM.
The like results for `N#Cc1ccc2c(c1)[C@H](N)C1(CCN(c3nc4nc(Sc5ccnc(N)c5Cl)cnc4[nH]3)CC1)C2` [Example 260, (R)-1-amino-1′-(5-((2-amino-3-chloropyridin-4-yl)thio)-1H-imidazo[4,5-b]pyrazin-2-yl)-1,3-dihydrospiro[indene-2,4′-piperidine]-6-carbonitrile] were, in that order, under 500 nM and under 1000 nM.
For the compound `CC(=O)N1CC(F)(F)c2c(Sc3cnc4[nH]c(N5CCC6(CC5)Cc5ccccc5[C@H]6N)nc4n3)cccc21` [Example 135, (S)-1-(4-((2-(1-amino-1,3-dihydrospiro[indene-2,4′-piperidin]-1′-yl)-1H-imidazo[4,5-b]pyrazin-5-yl)thio)-3,3-difluoroindolin-1-yl)ethan-1-one], the IC50 in experiment [1] is under 500 nM; in experiment [2] (setting [3]), under 1000 nM.
Take `N[C@@H]1c2ccccc2CC12CCN(c1nc3nc(Sc4cccc5c4OCC(=O)N5)cnc3[nH]1)CC2` [Example 157]: the IC50 is under 500 nM in experiment [1] and over 5000 nM in experiment [2] (setting [3]).
On to `N[C@@H]1c2cccnc2CC12CCN(c1nc3nc(Sc4ccnc(OC5COC5)c4Cl)cnc3[nH]1)CC2` [Example 153, (S)-1′-(5-((3-chloro-2-(oxetan-3-yloxy)pyridin-4-yl)thio)-1H-imidazo[4,5-b]pyrazin-2-yl)-5,7-dihydrospiro[cyclopenta[b]pyridine-6,4′-piperidin]-5-amine], for which the IC50 was 500 to 3000 nM in experiment [1] and over 5000 nM in experiment [2] (setting [3]).
For the compound `CNC(=O)c1ncccc1Sc1cnc2[nH]c(N3CCC4(CC3)Cc3ccccc3[C@H]4N)nc2n1` [Example 224, (S)-3-((2-(1-amino-1,3-dihydrospiro[indene-2,4′-piperidin]-1′-yl)-1H-imidazo[4,5-b]pyrazin-5-yl)thio)-N-methylpicolinamide], the results for the IC50 in experiment [1] and in experiment [2] (setting [3]) were under 500 nM and over 5000 nM, respectively.
Consider `N[C@@H]1c2ccccc2OC12CCN(c1nc3nc(Sc4ccnc(NC5CC5)c4Cl)cnc3[nH]1)CC2` [Example 174, (R)-1′-(5-((3-chloro-2-(cyclopropylamino)pyridin-4-yl)thio)-1H-imidazo[4,5-b]pyrazin-2-yl)-3H-spiro[benzofuran-2,4′-piperidin]-3-amine], for which the IC50 in experiment [1] is under 500 nM; in experiment [2] (setting [3]) it was under 1000 nM.
Consider `N[C@@H]1c2ccccc2CC12CCN(c1nc3nc(Sc4ccnc(O)c4Cl)cnc3[nH]1)CC2` [Example 152, (S)-4-((2-(1-amino-1,3-dihydrospiro[indene-2,4′-piperidin]-1′-yl)-1H-imidazo[4,5-b]pyrazin-5-yl)thio)-3-chloropyridin-2-ol], for which the IC50 was under 500 nM in experiment [1] and over 5000 nM in experiment [2].
Turning to `CNc1nccc(Sc2cnc3[nH]c(N4CCC5(CC4)Cc4ccccc4[C@H]5N)nc3n2)c1Cl` [Example 130, (S)-1′-(6-((3-chloro-2-(methylamino)pyridin-4-yl)thio)-1H-imidazo[4,5-b]pyrazin-2-yl)-1,3-dihydrospiro[indene-2,4′-piperidin]-1-amine], the IC50 in experiment [1] is under 500 nM; in experiment [2] (setting [3]), under 1000 nM.
Regarding `N[C@@H]1c2ccccc2CC12CCN(c1nc3nc(Sc4cc(Cl)nn5ccnc45)cnc3[nH]1)CC2` [Example 251, (S)-1′-(5-((6-chloroimidazo[1,2-b]pyridazin-8-yl)thio)-1H-imidazo[4,5-b]pyrazin-2-yl)-1,3-dihydrospiro[indene-2,4′-piperidin]-1-amine], the IC50 in experiment [1] is under 500 nM; in experiment [2] (setting [3]), 1000 to 5000 nM.
On to `N[C@@H]1c2cc(F)ccc2CC12CCN(c1nc3ncc(Sc4ccncc4Cl)nc3[nH]1)CC2` [Example 183, (S)-1′-(6-((3-chloropyridin-4-yl)thio)-1H-imidazo[4,5-b]pyrazin-2-yl)-6-fluoro-1,3-dihydrospiro[indene-2,4′-piperidin]-1-amine], for which the IC50 in experiment [1] is under 500 nM; in experiment [2] (setting [3]) it was under 1000 nM.
For `Cn1ncc2nccc(Sc3cnc4[nH]c(N5CCC6(CC5)Cc5ccccc5[C@H]6N)nc4n3)c21` [Example 261, (S)-1′-(5-((1-methyl-1H-pyrazolo[4,3-b]pyridin-7-yl)thio)-1H-imidazo[4,5-b]pyrazin-2-yl)-1,3-dihydrospiro[indene-2,4′-piperidin]-1-amine], in that order: under 500 nM and under 1000 nM.
For `Nc1nccc(Sc2cnc3[nH]c(N4CCC5(CC4)Cc4ccccc4[C@H]5N)nc3n2)c1F` [Example 222, (S)-1′-(5-((2-amino-3-fluoropyridin-4-yl)thio)-1H-imidazo[4,5-b]pyrazin-2-yl)-1,3-dihydrospiro[indene-2,4′-piperidin]-1-amine], in that order: under 500 nM and over 5000 nM.
Consider `N[C@H]1c2ccccc2CC12CCN(c1nc3nc(Sc4cccnc4C(F)(F)F)cnc3[nH]1)CC2` [Example 149, (R)-1′-(5-((2-(trifluoromethyl)pyridin-3-yl)thio)-1H-imidazo[4,5-b]pyrazin-2-yl)-1,3-dihydrospiro[indene-2,4′-piperidin]-1-amine], for which the IC50 was under 500 nM in experiment [1] and 1000 to 5000 nM in experiment [2].
As for `N[C@@H]1CCCC12CCN(c1nc3ncc(Sc4cccc(Cl)c4Cl)nc3[nH]1)CC2` [Example 3, (R)-8-(6-((2,3-dichlorophenyl)thio)-1H-imidazo[4,5-b]pyrazin-2-yl)-8-azaspiro[4.5]decan-1-amine], the IC50 was under 500 nM in experiment [1] and 1000 to 5000 nM in experiment [2] (setting [3]).
Consider `CC1(N)CCN(c2nc3nc(Sc4cccc5ccccc45)cnc3[nH]2)CC1` [Example 60, 4-methyl-1-(5-(naphthalen-1-ylthio)-1H-imidazo[4,5-b]pyrazin-2-yl)piperidin-4-amine], for which the IC50 in experiment [1] is under 500 nM; in experiment [2] (setting [3]) it was 1000 to 5000 nM.
As for `CC(C)(C)S(=O)(=O)N[C@@H]1c2cccnc2CC12CCN(c1nc3nc(Sc4cccnc4C(F)(F)F)cnc3[nH]1)CC2` [Example 142, (S)-2-methyl-N-(1′-(5-((2-(trifluoromethyl)pyridin-3-yl)thio)-1H-imidazo[4,5-b]pyrazin-2-yl)-5,7-dihydrospiro[cyclopenta[b]pyridine-6,4′-piperidin]-5-yl)propane-2-sulfonamide], the IC50 was 500 to 3000 nM in experiment [1] and over 5000 nM in experiment [2] (setting [3]).
As to `COc1cnccc1Sc1cnc2nc(N3CCC4(CC3)Cc3ccccc3[C@H]4N)[nH]c2n1` [Example 177, (S)-1′-(6-((3-methoxypyridin-4-yl)thio)-1H-imidazo[4,5-b]pyrazin-2-yl)-1,3-dihydrospiro[indene-2,4′-piperidin]-1-amine], the IC50 in experiment [1] was under 500 nM; in experiment [2] (setting [3]), under 1000 nM.
In the case of `Nc1nccc(Sc2cnc3[nH]c(N4CCC5(CC4)Cc4ccc(C6CC6)cc4[C@H]5N)nc3n2)c1Cl` [Example 257, (S)-1′-(5-((2-amino-3-chloropyridin-4-yl)thio)-1H-imidazo[4,5-b]pyrazin-2-yl)-6-cyclopropyl-1,3-dihydrospiro[indene-2,4′-piperidin]-1-amine], the IC50 in experiment [1] was under 500 nM; in experiment [2] (setting [3]), under 1000 nM.
With `Nc1cc(Sc2cnc3nc(N4CCC5(CC4)Cc4ccccc4[C@H]5N)[nH]c3n2)c(Cl)cn1` [Example 185, (S)-1′-(6-((2-amino-5-chloropyridin-4-yl)thio)-1H-imidazo[4,5-b]pyrazin-2-yl)-1,3-dihydrospiro[indene-2,4′-piperidin]-1-amine], the IC50 is under 500 nM in experiment [1] and under 1000 nM in experiment [2] (setting [3]).
Take `COc1cc(Sc2cnc3[nH]c(N4CCC5(CC4)Cc4ccccc4[C@H]5N)nc3n2)c(Cl)cn1` [Example 242, (S)-1′-(5-((5-chloro-2-methoxypyridin-4-yl)thio)-1H-imidazo[4,5-b]pyrazin-2-yl)-1,3-dihydrospiro[indene-2,4′-piperidin]-1-amine]: the IC50 in experiment [1] lay within 500 to 3000 nM; in experiment [2] (setting [3]), 1000 to 5000 nM.
